Numbers after ± are expanded uncertainties.
Tests used:
[1] = 298.15 K; 101.33 kPa; Liquid; Vibrating tube method
[2] = excess molar enthalpy (molar enthalpy of mixing); xn = mol fraction of the nth substance listed; conditions: 298.15 K, 101.33 kPa, Liquid, Flow calorimetry

C1CCCCC1 [cyclohexane]
Conditions	mass density [kg/m3]
[1]	773.92 ± 0.42

CCCCCCCCCC [decane]
Conditions	mass density [kg/m3]
[1]	726.37 ± 0.41

CCCCCC [hexane]
Conditions	mass density [kg/m3]
[1]	655.42 ± 0.4

C1CCOC1 [tetrahydrofuran]
Conditions	mass density [kg/m3]
[1]	882.09 ± 0.46

C1CCOC1 [tetrahydrofuran] + C1CCCCC1
[2]
Conditions	excess molar enthalpy [kcal/mol]
x1 = 0.05	0.0385 ± 0.000574
x1 = 0.1	0.0709 ± 0.000813
x1 = 0.15	0.0988 ± 0.00103
x1 = 0.2001	0.121 ± 0.0012
x1 = 0.2499	0.1399 ± 0.00136
x1 = 0.2997	0.1529 ± 0.00148
x1 = 0.35	0.1636 ± 0.00155
x1 = 0.4003	0.1707 ± 0.00163
x1 = 0.4504	0.174 ± 0.00165
x1 = 0.4999	0.1745 ± 0.00165
x1 = 0.5498	0.1722 ± 0.00163
x1 = 0.6	0.1663 ± 0.00158
x1 = 0.65	0.1569 ± 0.00151
x1 = 0.7003	0.1444 ± 0.00141
x1 = 0.7498	0.1264 ± 0.00124
x1 = 0.8	0.108 ± 0.0011
x1 = 0.8505	0.0858 ± 0.000908
x1 = 0.9003	0.0599 ± 0.000717
x1 = 0.95	0.0309 ± 0.000526

C1CCOC1 [tetrahydrofuran] + CCCCCC
[2]
Conditions	excess molar enthalpy [kcal/mol]
x1 = 0.05	0.0362 ± 0.000574
x1 = 0.1	0.0678 ± 0.000789
x1 = 0.1499	0.0942 ± 0.001
x1 = 0.2001	0.118 ± 0.0012
x1 = 0.25	0.1371 ± 0.00134
x1 = 0.2998	0.1538 ± 0.00148
x1 = 0.3503	0.1645 ± 0.00158
x1 = 0.4003	0.1733 ± 0.00165
x1 = 0.4504	0.1788 ± 0.0017
x1 = 0.5005	0.1794 ± 0.0017
x1 = 0.5508	0.1793 ± 0.0017
x1 = 0.6003	0.1743 ± 0.00165
x1 = 0.6503	0.1663 ± 0.00158
x1 = 0.7002	0.1544 ± 0.00148
x1 = 0.75	0.1389 ± 0.00136
x1 = 0.8015	0.119 ± 0.0012
x1 = 0.8501	0.0947 ± 0.001
x1 = 0.8998	0.0693 ± 0.000813
x1 = 0.9499	0.0365 ± 0.000574

C1CCOC1 [tetrahydrofuran] + CCCCCCCCCC
[2]
Conditions	excess molar enthalpy [kcal/mol]
x1 = 0.05	0.0371 ± 0.000598
x1 = 0.0999	0.0724 ± 0.000837
x1 = 0.15	0.104 ± 0.00108
x1 = 0.2	0.1308 ± 0.00129
x1 = 0.2503	0.1543 ± 0.00151
x1 = 0.3	0.1748 ± 0.00167
x1 = 0.3498	0.1922 ± 0.00182
x1 = 0.4002	0.2066 ± 0.00194
x1 = 0.4509	0.2141 ± 0.00198
x1 = 0.4999	0.2201 ± 0.00206
x1 = 0.5499	0.2222 ± 0.00206
x1 = 0.6002	0.2203 ± 0.00206
x1 = 0.6501	0.2133 ± 0.00198
x1 = 0.7003	0.2016 ± 0.00189
x1 = 0.7502	0.185 ± 0.00174
x1 = 0.8003	0.1621 ± 0.00158
x1 = 0.8502	0.134 ± 0.00134
x1 = 0.9011	0.098 ± 0.00108
x1 = 0.95	0.0545 ± 0.000765

— the NIST ThermoML archive (doi:10.1021/je020159m)
